Test results reported in patent publication US20250268873A1, “COMBINATION OF DUAL ATM AND DNA-PK INHIBITORS AND IMMUNOTHERAPEUTIC AGENTS FOR USE IN CANCER THERAPY” (XRAD THERAPEUTICS, INC., priority 2021, published 2025).

How the values were obtained:
mTOR = mTOR (Homo sapiens, UniProt P42345); test: mTOR Biochemical Assay (LanthaScreen TR-FRET); conditions: ATP 3 μM
Description: mTOR Kinase reactions were performed in a 10 μL volume in low-volume 384-well plates. Typically, PerkinElmer model 6008260 plates were used. The composition of the 1× kinase reaction buffer was: 50 mM HEPES pH 7.5, 0.01% Tween 20, 1 mM EGTA, 10 mM MnCl2, and 2 mM DTT. The solution of mTOR enzyme (ThermoFisher, #PR8683B; the final mTOR concentration: 0.5 μg/mL) was added, and the compounds were serially diluted to the final maximal concentration of 100 nM (3 fold series dilution, a total of 10 doses). GFP-4E-BP1 (the final concentration: 0.4 μM) and the ATP solution (the final ATP concentration: 3 μM) were added to the 384-well plate. The plate was incubated at 25° C. for 1 hour, and 10 μL of the EDTA solution (20 mM) and Tb-labeled anti-p4E-BP1 antibody (4 nM) in TR-FRET dilution buffer were added to each well. The plate was sealed, incubated 30 min at 25° C., and read on a plate reader configured for LanthaScreen™ TRFRET.

DNA-PK [1] = molecular target: T1, DNA-PK (Homo sapiens (Human), UniProt P78527); test: Pharmacodynamic assay, pDNA-PK/DNA-PK in FADU tumors; type: in vivo; conditions: for pDNA-PK/DNA-PK: FADU tumors
Description: (§1) FADU or MDA-MB-231 cells were harvested during log phase growth for in vivo implantation. The resuspended cells were washed three times in phosphate buffered saline (PBS) before preparing the working dilution in PBS. FADU cells were diluted to 1×10^7 cells/mL and MDA-MB-231 cells were diluted to 5×10^7 cells/mL. Each mouse was injected subcutaneously in the right flank with 100 μL of the cellular suspension. Tumor growth was monitored until the tumors reached a target volume of at least 100 mm^3, at which point mice were randomly stratified into four treatment groups.
(§2) Tumor studies were performed as follows. Mice bearing FADU or MDA-231 tumors were pre-dosed with vehicle alone or compound 569 alone at 3, 6, and 10 mg/kg. Tumors were then irradiated with 10 Gy 45 min after vehicle or compound 569 administration or left unirradiated (vehicle and compound 569 at 10 mg/kg). Tumors were harvested 1 h post radiation.
(§3) Tissue homogenates for pharmacodynamic analyses were collected and processed as follows. Tumor tissues from FADU or MDA-MB-231 tumors were flash frozen in liquid nitrogen and pulverized on dry ice using a tissue pulverizer. A portion of the tumor powder was transferred into a microtube, followed by addition of 500 μL of RIPA buffer [[…], pH 8.0, 150 mM NaCl, 0.1% SDS, 0.5% sodium deoxycholate, 1% IGEPAL® CA-630 (Sigma, I8896)]. To 10 ml of RIPA buffer, 2 tablets each of Protease inhibitor and Phosphatase inhibitor (Roche, #04693159001 & #04906837001), 200 μL of 0.1 M PMSF and 160 μL of Aprotinin, (Sigma, A6279) were added. The suspension was homogenized on ice with a pellet pestle motor (KONTES) and incubated on ice for 30 minutes. Cell lysates were centrifuged at 13,200 rpm for 15 min at 4° C. and supernatants were transferred to a new tube and analyzed for protein concentration with a BCA kit (Pierce, 23227), followed by immunoblotting.

DNA-PK [2] = molecular target: T1, DNA-PK; test: Pharmacodynamic assay, pDNA-PK/DNA-PK in MDA-231 tumors; type: in vivo
Description: as §1, §2, §3

ATM = ATM (Homo sapiens (Human), UniProt Q13315); test: Pharmacodynamic assay, pKAP1/KAP1 in MDA-231 tumors; type: in vivo
Chain of ATM (Q13315 whole entry): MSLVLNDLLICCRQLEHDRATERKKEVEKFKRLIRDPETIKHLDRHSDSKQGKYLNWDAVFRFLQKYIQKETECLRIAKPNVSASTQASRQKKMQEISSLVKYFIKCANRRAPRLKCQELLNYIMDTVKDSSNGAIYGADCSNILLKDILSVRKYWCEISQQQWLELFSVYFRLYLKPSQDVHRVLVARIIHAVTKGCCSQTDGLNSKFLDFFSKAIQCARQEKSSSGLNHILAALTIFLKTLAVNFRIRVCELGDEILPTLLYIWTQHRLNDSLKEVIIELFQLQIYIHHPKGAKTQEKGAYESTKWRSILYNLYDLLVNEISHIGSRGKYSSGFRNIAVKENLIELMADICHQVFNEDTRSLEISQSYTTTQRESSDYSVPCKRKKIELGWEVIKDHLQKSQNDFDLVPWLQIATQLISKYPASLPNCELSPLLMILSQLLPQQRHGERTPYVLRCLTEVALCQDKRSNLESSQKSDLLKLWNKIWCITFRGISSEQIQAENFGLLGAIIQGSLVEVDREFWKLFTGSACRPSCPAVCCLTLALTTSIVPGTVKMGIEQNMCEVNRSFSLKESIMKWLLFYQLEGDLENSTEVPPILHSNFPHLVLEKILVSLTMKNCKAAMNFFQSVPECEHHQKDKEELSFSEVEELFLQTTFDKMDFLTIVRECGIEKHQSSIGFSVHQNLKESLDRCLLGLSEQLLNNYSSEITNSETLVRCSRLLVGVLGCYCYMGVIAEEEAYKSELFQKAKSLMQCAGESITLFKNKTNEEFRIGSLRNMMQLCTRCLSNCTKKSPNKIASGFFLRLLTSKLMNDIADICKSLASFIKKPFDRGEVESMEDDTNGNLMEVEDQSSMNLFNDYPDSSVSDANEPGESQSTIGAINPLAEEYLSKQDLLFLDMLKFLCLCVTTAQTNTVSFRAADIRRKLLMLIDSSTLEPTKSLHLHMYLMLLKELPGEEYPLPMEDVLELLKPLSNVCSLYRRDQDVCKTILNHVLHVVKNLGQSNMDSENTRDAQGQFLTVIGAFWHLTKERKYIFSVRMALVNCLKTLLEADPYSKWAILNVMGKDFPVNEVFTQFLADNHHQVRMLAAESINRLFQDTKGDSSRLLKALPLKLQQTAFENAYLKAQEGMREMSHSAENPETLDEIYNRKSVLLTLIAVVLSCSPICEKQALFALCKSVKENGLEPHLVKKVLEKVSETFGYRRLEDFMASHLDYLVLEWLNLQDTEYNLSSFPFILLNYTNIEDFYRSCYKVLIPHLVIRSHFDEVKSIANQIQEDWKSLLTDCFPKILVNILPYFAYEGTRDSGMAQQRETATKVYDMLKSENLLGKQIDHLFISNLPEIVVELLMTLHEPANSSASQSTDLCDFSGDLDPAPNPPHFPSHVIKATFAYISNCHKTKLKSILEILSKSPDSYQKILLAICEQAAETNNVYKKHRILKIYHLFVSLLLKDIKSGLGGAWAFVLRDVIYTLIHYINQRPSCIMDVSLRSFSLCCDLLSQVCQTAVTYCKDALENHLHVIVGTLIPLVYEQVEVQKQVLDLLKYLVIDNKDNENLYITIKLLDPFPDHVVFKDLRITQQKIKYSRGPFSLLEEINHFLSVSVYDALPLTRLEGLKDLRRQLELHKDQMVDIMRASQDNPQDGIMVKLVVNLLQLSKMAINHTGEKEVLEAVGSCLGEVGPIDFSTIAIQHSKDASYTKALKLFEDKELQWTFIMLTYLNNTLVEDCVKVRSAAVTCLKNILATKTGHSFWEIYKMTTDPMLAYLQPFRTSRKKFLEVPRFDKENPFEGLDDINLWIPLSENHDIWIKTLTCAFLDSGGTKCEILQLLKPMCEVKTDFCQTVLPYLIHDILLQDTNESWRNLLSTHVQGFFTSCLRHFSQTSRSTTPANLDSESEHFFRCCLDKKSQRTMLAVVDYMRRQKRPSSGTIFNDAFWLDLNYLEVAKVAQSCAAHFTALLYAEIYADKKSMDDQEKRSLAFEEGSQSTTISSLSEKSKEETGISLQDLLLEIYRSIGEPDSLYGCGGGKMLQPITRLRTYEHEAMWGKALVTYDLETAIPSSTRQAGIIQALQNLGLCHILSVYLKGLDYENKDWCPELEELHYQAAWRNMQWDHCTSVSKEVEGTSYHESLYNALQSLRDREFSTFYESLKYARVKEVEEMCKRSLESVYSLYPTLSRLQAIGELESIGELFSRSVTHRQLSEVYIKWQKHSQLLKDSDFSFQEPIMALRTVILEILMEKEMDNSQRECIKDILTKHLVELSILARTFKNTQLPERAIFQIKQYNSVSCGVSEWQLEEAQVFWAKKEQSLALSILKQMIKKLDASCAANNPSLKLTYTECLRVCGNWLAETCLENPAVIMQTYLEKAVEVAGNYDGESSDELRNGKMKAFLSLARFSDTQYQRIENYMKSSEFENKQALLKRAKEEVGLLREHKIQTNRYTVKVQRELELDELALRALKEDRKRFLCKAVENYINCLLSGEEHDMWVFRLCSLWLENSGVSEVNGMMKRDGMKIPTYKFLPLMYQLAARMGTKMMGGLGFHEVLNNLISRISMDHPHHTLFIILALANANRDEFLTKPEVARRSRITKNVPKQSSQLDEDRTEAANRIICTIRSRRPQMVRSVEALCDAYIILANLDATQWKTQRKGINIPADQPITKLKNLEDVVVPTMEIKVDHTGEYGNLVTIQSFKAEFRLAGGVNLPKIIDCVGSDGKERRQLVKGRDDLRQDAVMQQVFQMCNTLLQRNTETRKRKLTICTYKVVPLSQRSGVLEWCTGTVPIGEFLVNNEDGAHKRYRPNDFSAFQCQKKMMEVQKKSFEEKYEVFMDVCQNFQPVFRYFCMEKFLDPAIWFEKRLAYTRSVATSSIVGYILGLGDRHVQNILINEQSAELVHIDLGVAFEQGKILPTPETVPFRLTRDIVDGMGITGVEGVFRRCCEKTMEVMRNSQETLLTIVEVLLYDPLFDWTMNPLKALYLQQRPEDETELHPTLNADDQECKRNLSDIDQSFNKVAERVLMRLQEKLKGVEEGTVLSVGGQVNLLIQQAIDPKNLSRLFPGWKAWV
Description: as §1, §2, §3

## CC(C)NCCOc1ncc(-c2cc3c4c(cnc3cc2F)N(C)C(=O)C42CCC2)cc1NS(C)(=O)=O [Compound 569, N-(5-(7′-Fluoro-3′-methyl-2′-oxo-2′,3′-dihydrospiro[cyclobutane-1,1′-pyrrolo[2,3-c]quinolin]-8′-yl)-2-(2-(isopropylamino)ethoxy)pyridin-3-yl)methanesulfonamide]
mTOR
  IC50: > 100 nM
DNA-PK [1]; 10 mg/kg, 10 Gy, FADU and MDA231 tumors (FIGS. 4 and 5), read-out: inhibition of tumor levels of radiation-induced autophosphorylation of DNA-PK
  inhibition at 10 mg/kg: ~55%
DNA-PK [1]; 10 Gy, 3 mg/kg oral
  pDNA-PK/DNA-PK: 0.938
DNA-PK [1]; 10 Gy, 6 mg/kg oral
  pDNA-PK/DNA-PK: 0.658
DNA-PK [1]; 10 Gy, 10 mg/kg oral
  pDNA-PK/DNA-PK: 0.476
DNA-PK [1]; no radiation, 10 mg/kg oral
  pDNA-PK/DNA-PK: 0.343
DNA-PK [1]; no radiation, 10 mg/kg
  basal phosphorylation of DNA-PK in tumors: inhibited
DNA-PK [2]; 10 Gy, 3 mg/kg oral
  pDNA-PK/DNA-PK: 0.889
DNA-PK [2]; 10 Gy, 6 mg/kg oral
  pDNA-PK/DNA-PK: 0.670
DNA-PK [2]; 10 Gy, 10 mg/kg oral
  pDNA-PK/DNA-PK: 0.454
DNA-PK [2]; no radiation, 10 mg/kg oral
  pDNA-PK/DNA-PK: 0.223
ATM; 10 Gy, 3 mg/kg oral
  pKAP1/KAP1: 0.327
ATM; 10 Gy, 6 mg/kg oral
  pKAP1/KAP1: 0.0130
ATM; 10 Gy, 10 mg/kg oral
  pKAP1/KAP1: 0.00901
ATM; no radiation, 10 mg/kg oral
  pKAP1/KAP1: −0.00319
